This is an account of results in patent US9526730B2, “Use of a DPP-4 inhibitor in podocytes related disorders and/or nephrotic syndrome” (Boehringer Ingelheim International GmbH, priority 2012, dated 2016).

The test system of one series is diabetic db/db mice. The series can be described thus: Diabetic nephropathy model: male diabetic db/db mice treated for 12 weeks (renal histology, immunohistochemistry, albumin excretion). It counts as in vivo, mouse. Conditions: for effect on fasted or post-prandial glucose levels / Podocalyxin expression (glomerular staining score 0-3): 12 weeks; for Podocalyxin expression (glomerular staining score 0-3): linagliptin 3 mg/kg/day, enalapril 20 mg/kg/day, db/db vehicle 1.59±0.2, db/+ 2.65±0.1; for glomerular mesangial matrix expansion compared with diabetic vehicle / tubulointerstitial fibrosis compared with diabetic vehicle: histology. The procedure:
The expression of podocalyxin is analyzed by immunohistochemistry using a podocalyxin specific antibody. Kidney sections from male diabetic db/db mice (10 weeks old at start and treated for 3 months) in the following groups are analyzed:
Diabetic control (n=10), linagliptin 3 mg/kg (n=8), enalapril 20 mg/kg (n=10) and heterozygous control mice (n=8).
All of the evaluations of the glomerular staining intensities are done semiquantitatively by two different experts of kidney pathology blinded for the slides.
The predefined scoring gradient is 0, 1, 2, and 3. 0 means no expression, whereas 3 is given when expression is highest. Group means are compared with a non-parametric test. P values less than 0.05 are considered significant.
Diabetic nephropathy is the main cause of end-stage renal disease. This study investigated the effects of linagliptin on diabetic nephropathy in severe insulin-resistant and old db/db mice as a model for diabetic nephropathy. Male diabetic db/db mice (10 weeks) were divided into 3 groups and treated for 12 weeks with vehicle (n=10), linagliptin 3 mg/kg/day (n=8), or the angiotensin converting enzyme (ACE) inhibitor enalapril 20 mg/kg/day (n=10).
Heterozygous db/+ mice treated with vehicle were used as controls (n=8). Levels of glucose, triglycerides, insulin, cystatin C and creatinine were analyzed in serum and urine samples at baseline and monthly thereafter. Body weight, urinary albumin excretion and OGTT were monitored periodically.
Renal histology (glomerulosclerosis, tubulointerstitial fibrosis) and expression of the sialoglycoprotein podocalyxin (a marker of podocyte integrity in the glomeruli, marker for glomerular damage), glucagon-like peptide 1 receptor (GLP-1R), alpha-smooth muscle actin and type I collagen were evaluated at the end of the study.

Series [1] concerns rats with 5/6 nephrectomy. In words: Rat model of chronic kidney disease (5/6 nephrectomy), 130 days. Conditions: for glomerulosclerosis (glomerulosclerosic index) / decrease of glomerular size vs PBO-treated 5/6 NX rats / decrease of interstitial fibrosis vs PBO-treated 5/6 NX rats: 130 days; for osteopontin vs PBO-treated 5/6 NX rats: plasma biomarker.
Series [2] can be described thus: Pooled analysis of four 24-week placebo-controlled trials: albuminuria (UACR) in T2D patients with early diabetic nephropathy on stable ACE/ARB (set 1). It counts as in vivo, human. The text has this: Despite optimal therapy, people with type 2 diabetes (T2D) remain at high risk for kidney damage, manifest as albuminuria, and many develop progressive renal failure. Further, despite optimal therapy with inhibitors of the renin-angiotensin-aldosterone systeme (RAAS), patients with type 2 diabetes mellitus (T2DM) remain at an increased risk of progressive renal failure and cardiovascular disease, for which album inuria has emerged as a predictive biomarker. Linagliptin, a DPP-4 inhibitor, has previously shown evidence of albumin lowering on top of telmisartan in mice. We explored the clinical effect of linagliptin on albuminuria in T2D patients with early diabetic nephropathy. Four randomized, double-blind, 24-week, placebo-controlled trials of linagliptin (5 mg qd) on no, mono, or dual oral glucose-lowering background therapy (such as e.g. linagliptin monotherapy, linagliptin add-on to metformin or linagliptin add-on to metformin plus a sulphonylurea, or linagliptin plus metformin initial combination) had data available for urinary albumin-to-creatinine ratio (UACR) and were pooled for analysis (n=2472). Participants were included in this analysis if they had: i) 30≦UACR≦3000 mg/g creatinine; ii) stable treatment with ACE/ARBs ≧4 weeks prior and during the trial; and iii) eGFR>30 ml/min/1.73 m^2. The endpoint was the percentage change in geometric mean UACR. In this analysis, 492 (19.9%) patients met UACR and eGFR thresholds of whom 46% received stable ACE/ARB therapy (linagliptin n=168; placebo n=59). Mean baseline A1C and median UACR were 8.2% vs 8.5% and 76 vs 78 mg/g creatinine for the linagliptin and placebo groups, respectively. After 24 weeks, placebo-corrected changes in A1C and FPG were −0.71% and −26 mg/dl, respectively (both p<0.0001). […] Overall, kidney function and blood pressure were unchanged although more patients on placebo received new anti-hypertensive drugs (17% vs 11% with linagliptin). […] Linagliptin may have kidney-protective properties beyond glucose-lowering effects. This protective effect may be independent of race. Linagliptin may be useful for treating or lowering albuminuria on top of standard of care of angiotensin-converting enzyme (ACE) inhibition or angiotensin II receptor blockade (ARB) in T2DM patients with early diabetic nephropathy.
(§1) Seven randomised, double-blind, placebo-controlled trials (duration 24-52 weeks) of linagliptin (5 mg q.d.) as monotherapy or add-on to various glucose-lowering background therapies had data available for urinary albumin-to-creatinine ratio (UACR) and were eligible for this analysis (n=4113). Data after 24 weeks of treatment were generated to allow pooling and two sets were defined: 1) Diabetic nephropathy in earlier stages of T2D (with and without oral glucose-lowering background therapies, such as e.g. linagliptin monotherapy, linagliptin add-on to metformin or linagliptin add-on to metformin plus a sulphonylurea, or linagliptin plus metformin initial combination): participants from four 24-week pivotal phase III trials if they had persistent albuminuria, defined as 30≦UACR≦3000 mg/g (eGFR>30 ml/min/1.73 m^2) and stable treatment with an angiotensin-converting enzyme inhibitor (ACEi) or angiotensin II receptor blocker (ARB) at baseline (ongoing treatment with ACEi or ARB); 2) Diabetic nephropathy in elderly patients (various glucose-lowering background therapies including insulin, such as e.g. linagliptin monotherapy, linagliptin add-on to metformin or linagliptin add-on to metformin plus a sulphonylurea, or linagliptin plus metformin initial combination, or linagliptin in combination with basal insulin): patients from all seven trials, fulfilling UACR criteria 30≦UACR≦3000 mg/g (eGFR>30 ml/min/1.73 m^2) and aged ≧65 years (with or without ongoing treatment with ACEi or ARB). The endpoint in both sets was the percentage change in geometric mean UACR after 24 weeks.

Series [3] can be described thus: Pooled analysis of seven placebo-controlled trials: UACR in elderly (>=65 years) T2D patients with diabetic nephropathy (set 2). It counts as in vivo, human. How it is done: as §1
Series [4] can be described thus: Safety and tolerability in people with type 2 diabetes.
Series [5] in a line: Pharmacokinetics of BI 1356, multiple oral doses once daily for 12 days in patients with type 2 diabetes. Conditions: for feT,ss: steady state (Day 12); for feT,ss / fe0-24: gMean; for fe0-24: fraction excreted in urine.
The nature of series [6]: Meta-analysis of 13 phase 3 placebo-controlled trials: renal safety and outcomes in 5466 patients with type 2 diabetes.
From the text: The aim of this study was to evaluate renal safety/outcomes with linagliptin in phase 3, randomized, double-blind, placebo-controlled trials (≧12 wks).
Where [7] appears, read: LIN 0.083 mg/kg in chow, TEL 5 mg/kg/d in drinking water.
The mark [8] stands for this setting: linagliptin 5 mg qd, after 24 weeks, set 1.

Regarding `CCOC(=O)[C@H](CCc1ccccc1)N[C@@H](C)C(=O)N1CCC[C@H]1C(=O)O` [enalapril, reference compound], in the series with diabetic db/db mice, the “effect on fasted or post-prandial glucose levels” value was “limited effects” and the “Podocalyxin expression (glomerular staining score 0-3)” value was 2.4±0.2. In addition, in the series on diabetic db/db mice (p<0.05), the “glomerular mesangial matrix expansion compared with diabetic vehicle” value is reported as “reduced almost to control levels” and the “tubulointerstitial fibrosis compared with diabetic vehicle” value is given as “reduced almost to control levels”.
As to `CCCc1nc2c(C)cc(-c3nc4ccccc4n3C)cc2n1Cc1ccc(-c2ccccc2C(=O)O)cc1` [telmisartan, reference compound], in series [1] (5/6 NX rats), the Blood pressure lowering was 31 mmHg, the TGF-β expression result is listed as “significantly decreases” and the “glomerulosclerosis (glomerulosclerosic index)” value is reported as “trend towards decreased”. In series [1] (setting [7]), the “decrease of urinary albumin/creatinine ratio vs PBO-treated 5/6 NX rats” value came to 92%, the “decrease of glomerular size vs PBO-treated 5/6 NX rats” value was “not significantly” and the “decrease of interstitial fibrosis vs PBO-treated 5/6 NX rats” value amounted to 24%. For the same compound, the “osteopontin vs PBO-treated 5/6 NX rats” value in series [1] is listed as “significantly decreases”.
Take `CC#CCn1c(N2CCC[C@@H](N)C2)nc2c1c(=O)n(Cc1nc(C)c3ccccc3n1)c(=O)n2C` [linagliptin]: in the series with diabetic db/db mice, the “expression of α-smooth muscle actin-positive myofibroblasts in interstitium and glomeruli” value is “normalized”; the “effect on fasted or post-prandial glucose levels” value is given as “limited effects”; the “Podocalyxin expression (glomerular staining score 0-3)” value amounted to 2.3±0.2. Besides, the “loss of podocytes (podocalyxin staining)” value with diabetic db/db mice (blood glucose independent) is given as “significantly reduces”. Moreover, in the series on diabetic db/db mice (p<0.05), the “glomerular mesangial matrix expansion compared with diabetic vehicle” value is listed as “reduced almost to control levels”, the “tubulointerstitial fibrosis compared with diabetic vehicle” value is “reduced almost to control levels”, the “Urinary albumin excretion rates compared with enalapril-treated mice” value is on record as “significantly decreased” and the “tubulointerstitial fibrosis compared with enalapril-treated mice” value was “significantly decreased”. Besides, the “GLP-1R expression in the glomeruli (immunohistochemical staining)” value in the series with diabetic db/db mice (linagliptin 3 mg/kg/day 12 weeks, vehicle db/db 1.67±0.07, healthy 2.15±0.1) is reported as 1.90±0.04. Moreover, in series [2] (24 weeks), the “kidney function and blood pressure” value is listed as “unchanged”. Further, the “lowering of adjusted UACR (geometric mean)” value in series [2] (linagliptin 5 mg qd, 24 weeks, on stable ACE/ARB, set 1) worked out at 33%. The “between group difference vs placebo in UACR” value in series [2] (linagliptin 5 mg qd, 24 weeks, set 1) is −29%. Moreover, in series [2] (setting [8]), the “placebo-corrected change in A1C (HbA1c)” value is recorded as −0.71%, the “placebo-corrected change in FPG” value was -26 mg/dL and the “placebo-corrected change in fasting plasma glucose” value is -1.4 mmol/L. In addition, the “blood pressure and renal function” value in series [3] (all seven studies) was “not affected to a clinically meaningful extent”. Besides, the “treatment duration at which overall UACR effect occurs” value in series [3] (as early as) is given as 12 weeks. Also, the “reduction of UACR versus placebo (trend)” value in series [3] (linagliptin 5 mg q.d., 24 weeks, set 2) is listed as −25%. For the same compound, in series [3] (linagliptin 5 mg q.d., 24 weeks, set 2, aged >=65 years), the “lowering of adjusted UACR” value was found to be 30%. The safety and tolerability result in series [4] is on record as “placebo-like”. Further, in series [1] (5/6 NX rats), the Blood pressure lowering result is recorded as “unaffected” and the “glomerulosclerosis (glomerulosclerosic index)” value was “trend towards decreased”. In addition, in series [1] (setting [7]), the “decrease of glomerular size vs PBO-treated 5/6 NX rats” value came to 18% and the “decrease of interstitial fibrosis vs PBO-treated 5/6 NX rats” value is on record as 48%. In addition, the “osteopontin vs PBO-treated 5/6 NX rats” value in series [1] is “decreases”. In series [1] (rat, in vivo), the “plasma concentration of B2M vs PBO-treated 5/6 NX rats” value is “decreases” and the “plasma concentration of TIMP-1 vs PBO-treated 5/6 NX rats” value is listed as “decreases”. Moreover, the “feT,ss” value in series [5] (1 mg oral once daily) came out at 3.34%. In series [5] (2.5 mg oral once daily), the “feT,ss” value is 3.06% and the fe0-24 came out at 0.139%. For the same compound, in series [5] (5 mg oral once daily), the “feT,ss” value came out at 6.27% and the fe0-24 amounted to 0.453%. In series [5] (10 mg oral once daily), the “feT,ss” value came out at 3.22% and the fe0-24 was determined as 0.919%. For the same compound, the “mean accumulation ratio RA,AUC” value in series [5] (doses above 1 mg once daily) is on record as at most 1.4. Moreover, the “excretion of unchanged drug” value in series [5] (human, in vivo) is “primarily excreted unchanged via the bile”. Further, in series [5] (therapeutic oral dose levels), the “excretion via the kidney” value is on record as < 7 % of the administered oral dose and the “main route of excretion” value is given as “mainly excreted via the liver”. Further, the “patients with composite renal endpoint events (number)” value in series [6] (linagliptin 5 mg qd, n=3505, placebo 306) worked out at 448 patients. Also, the “patients with composite renal endpoint events (proportion)” value in series [6] (linagliptin 5 mg qd, placebo 15.6%) was determined as 12.8%. The “HR for the composite endpoint” value in series [6] (patients <65 yrs) was determined as 0.77. In addition, in series [6] (patients >65 yrs), the “HR for the composite endpoint” value came out at 1.04. Moreover, in series [6] (vs placebo), the “RR change: ARF” value is given as −7%, the “RR change: death” value is −23%, the “RR change: macroalbuminuria” value was −12% and the “RR change: microalbuminuria” value is −15%. Besides, in series [6] (vs placebo), the “RR change: new onset of CKD” value is −56% and the “RR change: worsening of CKD” value is −24%.
